In article PMC9250534, “Synthesis and direct assay of large macrocycle diversities by combinatorial late-stage modification at picomole scale” (Nature Communications, 2022):

The compounds below were run against MDM2 (Homo sapiens, UniProt Q00987) (assay: MDM2 binding screen of Libraries 3 and 4: displacement of fluorescent probe F-M8 at 750 nM macrocycle). Settings: Panel b, Library 3: 63 scaffolds combinatorially acylated with 15 carboxylic acids at 30 picomole scale; displacement of fluorescent peptide probe; macrocycle 750 nM.
Chain of MDM2 (Q00987 whole entry): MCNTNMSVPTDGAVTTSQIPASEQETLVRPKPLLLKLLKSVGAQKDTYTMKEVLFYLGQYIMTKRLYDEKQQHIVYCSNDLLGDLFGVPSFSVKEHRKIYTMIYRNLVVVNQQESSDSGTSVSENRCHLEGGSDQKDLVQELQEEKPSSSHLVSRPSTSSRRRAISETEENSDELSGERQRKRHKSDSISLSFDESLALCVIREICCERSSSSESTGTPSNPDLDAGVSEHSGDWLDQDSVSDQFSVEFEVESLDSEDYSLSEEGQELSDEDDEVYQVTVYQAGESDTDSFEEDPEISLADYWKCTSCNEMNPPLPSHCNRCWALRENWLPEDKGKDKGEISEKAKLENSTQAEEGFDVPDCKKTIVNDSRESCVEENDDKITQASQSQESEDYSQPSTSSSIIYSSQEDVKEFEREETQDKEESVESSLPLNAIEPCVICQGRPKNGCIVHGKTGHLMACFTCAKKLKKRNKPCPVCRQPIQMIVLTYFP
How it was run: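 Competition with nutlin-3a was run using the fluorescein conjugate. Library members came from scaffolds reacted 6 h at room temperature with carboxylic acids (20 equiv.), HBTU and DABCO in DMSO. Quenching was overnight in Tris-Cl pH 7.4 buffer with 0.01% Tween20.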

fraction of fluorescent probe displaced | SMILES
0.048 | O=C(CCS(=O)(=O)c1ccccc1)NC[C@H]1NC(=O)[C@H]2CCCN(C2)C(=O)CCSSCCNC(=O)[C@H](Cc2ccc3ccccc3c2)NC1=O [X-Nip-D-Dap-2-Nal + Acid 114]
0.041 | O=C(NC[C@H]1NC(=O)[C@H]2CCCN(C2)C(=O)CCSSCCNC(=O)[C@H](Cc2c[nH]c3cc(Cl)ccc23)NC1=O)c1ccc(Cl)cc1 [X-Nip-D-Dap-Cl-Trp + Acid 25]
0.018 | O=C(/C=C/c1ccncc1)NC[C@H]1NC(=O)[C@H]2CCCN(C2)C(=O)CCSSCCNC(=O)[C@H](Cc2c[nH]c3cc(Cl)ccc23)NC1=O [X-Nip-D-Dap-Cl-Trp + Acid 106]
0.024 | O=C(NC[C@H]1NC(=O)[C@H]2CCCN(C2)C(=O)CCSSCCNC(=O)[C@H](Cc2c[nH]c3cc(Cl)ccc23)NC1=O)c1ccc2ccccc2c1 [X-Nip-D-Dap-Cl-Trp + Acid 107]
0.00133 | O=C(/C=C/c1ccc(Cl)cc1)NC[C@H]1NC(=O)[C@H]2CCCN(C2)C(=O)CCSSCCNC(=O)[C@H](Cc2c[nH]c3cc(Cl)ccc23)NC1=O [X-Nip-D-Dap-Cl-Trp + Acid 108]
0.008 | O=C(/C=C/c1ccc(OCc2ccccc2)cc1)NC[C@H]1NC(=O)[C@H]2CCCN(C2)C(=O)CCSSCCNC(=O)[C@H](Cc2c[nH]c3cc(Cl)ccc23)NC1=O [X-Nip-D-Dap-Cl-Trp + Acid 110]
-0.00533 | O=C(/C=C/c1ccc2ccccc2c1)NC[C@H]1NC(=O)[C@H]2CCCN(C2)C(=O)CCSSCCNC(=O)[C@H](Cc2c[nH]c3cc(Cl)ccc23)NC1=O [X-Nip-D-Dap-Cl-Trp + Acid 112]
-0.00533 | CC(Oc1cccc(Cl)c1)C(=O)NC[C@H]1NC(=O)[C@H]2CCCN(C2)C(=O)CCSSCCNC(=O)[C@H](Cc2c[nH]c3cc(Cl)ccc23)NC1=O (stereo partly drawn) [X-Nip-D-Dap-Cl-Trp + Acid 113]
0.015 | O=C(CCS(=O)(=O)c1ccccc1)NC[C@H]1NC(=O)[C@H]2CCCN(C2)C(=O)CCSSCCNC(=O)[C@H](Cc2c[nH]c3cc(Cl)ccc23)NC1=O [X-Nip-D-Dap-Cl-Trp + Acid 114]
-0.012 | O=C(NC[C@H]1NC(=O)[C@H]2CCCN(C2)C(=O)CCSSCCNC(=O)[C@H](Cc2c[nH]c3cc(Cl)ccc23)NC1=O)C1COc2ccccc2O1 (stereo partly drawn) [X-Nip-D-Dap-Cl-Trp + Acid 115]
-0.00533 | O=C(NC[C@H]1NC(=O)[C@H]2CCCN(C2)C(=O)CCSSCCNC(=O)[C@@H](Cc2c[nH]c3ccccc23)NC1=O)c1ccc(Cl)s1 [X-Nip-D-Dap-D-Trp + Acid 14]
0.00133 | O=C(NC[C@H]1NC(=O)[C@H]2CCCN(C2)C(=O)CCSSCCNC(=O)[C@@H](Cc2c[nH]c3ccccc23)NC1=O)c1ccc(Cl)cc1 [X-Nip-D-Dap-D-Trp + Acid 25]
0.050 | O=C(NC[C@H]1NC(=O)[C@H]2CCCN(C2)C(=O)CCSSCCNC(=O)[C@@H](Cc2c[nH]c3ccccc23)NC1=O)c1ccc2ccccc2c1 [X-Nip-D-Dap-D-Trp + Acid 107]
-0.012 | O=C(/C=C/c1ccc(OCc2ccccc2)cc1)NC[C@H]1NC(=O)[C@H]2CCCN(C2)C(=O)CCSSCCNC(=O)[C@@H](Cc2c[nH]c3ccccc23)NC1=O [X-Nip-D-Dap-D-Trp + Acid 110]
0.075 | O=C(/C=C/c1ccc2ccccc2c1)NC[C@H]1NC(=O)[C@H]2CCCN(C2)C(=O)CCSSCCNC(=O)[C@@H](Cc2c[nH]c3ccccc23)NC1=O [X-Nip-D-Dap-D-Trp + Acid 112]
0.021 | O=C(CCS(=O)(=O)c1ccccc1)NC[C@H]1NC(=O)[C@H]2CCCN(C2)C(=O)CCSSCCNC(=O)[C@@H](Cc2c[nH]c3ccccc23)NC1=O [X-Nip-D-Dap-D-Trp + Acid 114]

fraction of fluorescent probe displaced | SMILES
0.008 | Cn1cc(C[C@@H]2NC(=O)[C@@H](CNC(=O)c3ccc(Cl)s3)NC(=O)[C@H]3CCCN(C3)C(=O)CCSSCCNC2=O)c2ccccc21 [X-Nip-D-Dap-Me-Trp + Acid 14]
-0.00533 | Cn1cc(C[C@@H]2NC(=O)[C@@H](CNC(=O)c3ccc(Cl)cc3)NC(=O)[C@H]3CCCN(C3)C(=O)CCSSCCNC2=O)c2ccccc21 [X-Nip-D-Dap-Me-Trp + Acid 25]
0.015 | Cn1cc(C[C@@H]2NC(=O)[C@@H](CNC(=O)/C=C/c3ccc(Cl)cc3)NC(=O)[C@H]3CCCN(C3)C(=O)CCSSCCNC2=O)c2ccccc21 [X-Nip-D-Dap-Me-Trp + Acid 108]
0.008 | Cn1cc(C[C@@H]2NC(=O)[C@@H](CNC(=O)/C=C/c3ccc(OCc4ccccc4)cc3)NC(=O)[C@H]3CCCN(C3)C(=O)CCSSCCNC2=O)c2ccccc21 [X-Nip-D-Dap-Me-Trp + Acid 110]
0.048 | Cn1cc(C[C@@H]2NC(=O)[C@@H](CNC(=O)c3cccc(Oc4ccccc4)c3)NC(=O)[C@H]3CCCN(C3)C(=O)CCSSCCNC2=O)c2ccccc21 [X-Nip-D-Dap-Me-Trp + Acid 111]
0.021 | Cn1cc(C[C@@H]2NC(=O)[C@@H](CNC(=O)/C=C/c3ccc4ccccc4c3)NC(=O)[C@H]3CCCN(C3)C(=O)CCSSCCNC2=O)c2ccccc21 [X-Nip-D-Dap-Me-Trp + Acid 112]
0.015 | Cn1cc(C[C@@H]2NC(=O)[C@@H](CNC(=O)CCS(=O)(=O)c3ccccc3)NC(=O)[C@H]3CCCN(C3)C(=O)CCSSCCNC2=O)c2ccccc21 [X-Nip-D-Dap-Me-Trp + Acid 114]
-0.012 | Cn1cc(C[C@@H]2NC(=O)[C@@H](CNC(=O)C3COc4ccccc4O3)NC(=O)[C@H]3CCCN(C3)C(=O)CCSSCCNC2=O)c2ccccc21 (stereo partly drawn) [X-Nip-D-Dap-Me-Trp + Acid 115]
0.00133 | CN1C(=O)[C@@H](CNC(=O)c2ccc(Cl)s2)NC(=O)[C@H]2CCCN(C2)C(=O)CCSSCCNC(=O)[C@@H]1Cc1c[nH]c2ccccc12 [X-Nip-D-Dap-NMe-Trp + Acid 14]
0.00133 | CN1C(=O)[C@@H](CNC(=O)c2ccc(Cl)cc2)NC(=O)[C@H]2CCCN(C2)C(=O)CCSSCCNC(=O)[C@@H]1Cc1c[nH]c2ccccc12 [X-Nip-D-Dap-NMe-Trp + Acid 25]
-0.00844 | CN1C(=O)[C@@H](CNC(=O)/C=C/c2ccncc2)NC(=O)[C@H]2CCCN(C2)C(=O)CCSSCCNC(=O)[C@@H]1Cc1c[nH]c2ccccc12 [X-Nip-D-Dap-NMe-Trp + Acid 106]
0.031 | CN1C(=O)[C@@H](CNC(=O)c2ccc3ccccc3c2)NC(=O)[C@H]2CCCN(C2)C(=O)CCSSCCNC(=O)[C@@H]1Cc1c[nH]c2ccccc12 [X-Nip-D-Dap-NMe-Trp + Acid 107]
-0.00533 | CN1C(=O)[C@@H](CNC(=O)/C=C/c2ccc(OCc3ccccc3)cc2)NC(=O)[C@H]2CCCN(C2)C(=O)CCSSCCNC(=O)[C@@H]1Cc1c[nH]c2ccccc12 [X-Nip-D-Dap-NMe-Trp + Acid 110]
0.008 | CN1C(=O)[C@@H](CNC(=O)CCS(=O)(=O)c2ccccc2)NC(=O)[C@H]2CCCN(C2)C(=O)CCSSCCNC(=O)[C@@H]1Cc1c[nH]c2ccccc12 [X-Nip-D-Dap-NMe-Trp + Acid 114]
-0.00533 | O=C(NC[C@H]1NC(=O)[C@H]2CCCN(C2)C(=O)CCSSCCNC(=O)[C@H](Cc2c[nH]c3ccccc23)NC1=O)c1ccc(Cl)cc1 [X-Nip-D-Dap-Trp + Acid 25]
